Data taken from article PMC6651038, “16-Hydroxy-Lycopersene, a Polyisoprenoid Alcohol Isolated from Tournefortia hirsutissima, Inhibits Nitric Oxide Production in RAW 264.7 Cells and Induces Apoptosis in Hep3B Cells” (Molecules, 2019).
Where two headings read alike, the source gives them in different places.

Tests used:
[1] = system: immortalized human hepatocyte cell line (IHH); assay: Antiproliferative MTS assay, IHH non-cancerous cells; type: cell-based; conditions: 72 h
Description: (§1) PC3 (prostate), HeLa (cervical) and Hep3B and HepG2 (hepatocellular) human cancer cell lines were purchased from ATCC (Manassas, VA, USA). We also included immortalized human hepatocyte cell line (IHH) as a control of non-cancerous cells. PC3 was grown in RPMI-1640 medium (Sigma Aldrich, St. Louis, MO, USA), while Hep3B, HepG2, HeLa and IHH in DMEM medium (Invitrogen, Thermo Fisher Scientific, Waltham, MA, USA) supplemented with 10% SFB and 2 mM glutamine, all cultures were incubated at 37 °C in 5% CO2.
(§2) Cells (4 × 10^3 cells/well) were seeding in 96-well plates. The cells were treated with the investigated samples (at 0.01, 0.1, 1, 10 and 100 µg/mL) and incubated at 37 °C in 5% CO2 for 72 h. PTX was used as positive control. The number of viable cells in proliferation was checked by MTS assay, following the manufacturer’s instructions. The absorbance was measured at 450 nm using an automated ELISA reader (Promega, Madison, WI, USA).

[2] = system: PC3 cells; assay: Cell cycle analysis by flow cytometry, PC3; type: cell-based, human; conditions: PC3, treatment at IC50, 72 h; control 0.9%
Description: (§3) PC3, Hep3B, HepG2 and HeLa cells (1.25 × 10^5 cells/well) were seed in 6-well plates and allowed to attach overnight at 37 °C in 5% CO2. Exponential growing cells were treated with Compound 1 to the IC50 values for 72 h. PTX (10 nM) was included as a positive control of the G2/M phase arrest. Cells from each treatment were trypsinized and collected into single cell suspensions, centrifuged, and fixed in cold ethanol (70%) overnight at −20 °C. The cells were then treated with 0.01 M RNase (Sigma Aldrich, St. Louis, MO, USA) and stained with 7.5 µg/mL PI (Invitrogen) for 30 min in the dark. The percentage of cells in sub-G1, G1, S, and G2/M phases was analyzed with a flow cytometer (Becton Dickinson, FACS Calibur; Beckman Coulter, Inc., Brea, CA, USA) using 10,000 cells for each sample. Data obtained from the flow cytometer were analyzed using the FlowJo Software (Tree Star, Inc., Ashland, OR, USA).

[3] = system: Bcl-2; assay: RT-PCR, Bcl-2 mRNA in Hep3B cells; type: cell-based, human; conditions: 21.3 µM, 72 h, vs non-treated control
Description: (§4) RNA was quantified using NanoDrop ND-1000 (Thermo Scientific, Waltham, MA, USA) and the RNA content was normalized. The RT-PCR was performed using a One-Step RT-PCR Kit with Thermo-Start Taq (Thermo Scientific, Waltham, MA, USA) following the manufacturer's instructions. PCR was performed with the following primers sequences: Bcl-2 ([NT]), Bax ([NT] ([NT]). Sequencing was performed at the Instituto de Biotecnología of Universidad Nacional Autónoma de México.

[4] = system: Bax; assay: RT-PCR, Bax mRNA in Hep3B cells; type: cell-based, human; conditions: 21.3 µM, 72 h, vs non-treated control
Description: as §4

[5] = system: Hep3B cells; assay: Cell cycle analysis by flow cytometry, Hep3B; type: cell-based, human; conditions: treatment at IC50, 72 h, control 0.0%
Description: as §3

[6] = system: RAW 264.7 cells; assay: Cell viability of RAW 264.7 cells (MTS); type: cell-based, murine; conditions: at 30 and 60 µg/mL
Description: (§5) RAW 264.7 cells (murine macrophage cell line) were purchased from ATCC (Georgetown, Washington, DC, USA ) and cultured in Advanced DMEM/F12 medium (Gibco, Waltham, MA USA) supplemented with 1% GlutaMAX (Gibco) and 3.5% inactivated FBS (Gibco), without antibiotics at 37 °C in 5% CO2.
The cell viability was determined by using MTS from Promega. The cells (1 × 10^4 cells per well) were seeding in 96-well plates in 100 µL of medium and were incubated for 24 h. Then, the cells were treated with various concentrations of the investigated samples, positive control (etoposide, 30 µg/mL) or vehicle (0.4% DMSO in culture medium) and incubated for 24 h. Subsequently, 20 µL of MTS was added at 20 h of treatment for 4 h, after that, the absorbance at 490 nm was measured using a microplate reader (Biotek, Winooski, VT, USA). The absorbance of control cells (untreated) was taken as 100% viability. The concentration of DMSO together with the treatments, in the culture medium was ≤ 0.4%, v/v.

[7] = system: PC3; assay: Antiproliferative MTS assay, PC3; type: cell-based; conditions: Homo sapiens, PC-3, 72 h
Description: as §1, §2

[8] = system: HepG2; assay: Antiproliferative MTS assay, HepG2; type: cell-based; conditions: Homo sapiens, 72 h
Description: as §1, §2

[9] = system: Hep3B; assay: Antiproliferative MTS assay, Hep3B; type: cell-based; conditions: Homo sapiens, 72 h
Description: as §1, §2

[10] = system: HeLa; assay: Antiproliferative MTS assay, HeLa; type: cell-based; conditions: Homo sapiens, 72 h
Description: as §1, §2

[11] = system: caspase 3/7; assay: Caspase-Glo 3/7 assay in Hep3B cells; type: cell-based, human; conditions: 21.3 µM (12 µg/mL), 72 h
Description: Hep3B cells (8 × 10^3 cells per well) were plated on 96-well plates and treated with 1 at 21.31 µM for 72 h. After treatment, the caspase 3/7 activity was determined using the luminescent Caspase-Glo® 3/7 Assay (Promega, Madison, WI, USA) following the manufacturer’s instructions. The results were represented as relative units of luminescence.

[12] = system: Hep3B cells; assay: Cell morphology, acridine orange/ethidium bromide staining; type: cell-based, human; conditions: 21.3 µM (12 µg/mL), 72 h
Description: The morphological changes of Hep3B cells exposed to Compound 1 were evaluated using acridine orange (AO) and ethidium bromide (EB) staining. In brief, Hep3B cells (2 × 10^4 cells per well) were seeding in 24-well plates and exposed with Compound 1 at 21.31 µM for 72 h. After 72 h of treatment cells were exposed to a solution of 100 µg/mL AO and 100 µg/mL EB, according to reported procedures. For controls, the cells were grown 71 h before being treated 30 min with H2O2 (positive control of apoptosis) or being boiling in water at 95 °C for 10 s (positive control of necrosis). Then, the cells were observed using a fluorescence microscope.

[13] = system: nitric oxide (NO) production in LPS-stimulated RAW 264.7 cells; assay: NO (nitrite, Griess) production in LPS-stimulated RAW 264.7 cells; type: cell-based, murine; conditions: for inhibitory activity on NO production: highest evaluated concentration (60 µg/mL)
Description: as §5
RAW 264.7 cells were seeding (2 × 10^4 cells in 200 µL) and incubated for 24 h, then, were treated with various concentrations of the investigated samples, indomethacin (30 µg/mL) or DMSO (0.4%, v/v) for 2 h followed by stimulation with 1 µg/mL of LPS (from E. coli purchased from Sigma Aldrich, St. Louis, MO, USA) for 21 h. The nitrite is a stable metabolite of the NO and its concentration was calculated with Griess reagent and the aid of a standard curve of NaNO2. Cell-free supernatants (50 µL) were collected and incubated for 10 min with the Griess reagent (50 µL of 0.1% N-(1-napthyl)-ethylenediamine dihydrochloride and 50 µL of 1% sulphanilamide both in 2.5% phosphoric acid) at room temperature and absorbance at 540 nm was measured using a microplate reader.

[14] = system: HepG2 cells; assay: Cell cycle analysis by flow cytometry, HepG2; type: cell-based, human; conditions: HepG2, treatment at IC50, 72 h; control 1.5%
Description: as §3

[15] = system: Hep3B cells; assay: Annexin V-FITC/PI staining, flow cytometry; type: cell-based, human; conditions: Compound 1 21.3 µM, PTX 20 nM, 72 h
Description: Apoptosis was evaluated using Annexin V Apoptosis Detection Kit FITC (Thermo Fisher Scientific, CA, USA). Hep3B cells (2.5 × 10^5 cells) were treated with 1 (21.31 µM). PTX (20 nM) was used as positive control of apoptosis. After 72 h, the cells were harvested and washed twice with ice-cold PBS (0.01 M, pH 7.2). After 5 min of centrifuging at 200 g. Annexin V-FITC/PI staining were performed according to manufacturer’s instruction. Cell apoptosis was analyzed on flow cytometer (10,000 cells for each sample). Data obtained from the flow cytometer were analyzed using the FlowJo Software.

[16] = system: U937 cells; conditions: cited from earlier work
[17] = system: TPA-induced acute edema in mice ear; assay: TPA-induced ear edema in mice; type: in vivo; conditions: 1 mg/ear topical, male ICR mice, 6 h after TPA
Description: Edema in mice ear was induced with TPA purchased from Sigma Aldrich (St. Louis, MO, USA), following the method previously described. All animals were treated in accordance with Official Mexican Rule of Technical Specifications for the Production, Care and Use of Laboratory Animals (NOM-062-ZOO-1999 Guidelines) and international ethical guidelines for the care and use of experimental animals. The experimental protocol was authorized by the local Health Research Committee (Instituto Mexicano del Seguro Social (IMSS)). The experiments were carried out with male ICR mice weighing between 25–30 g (five animals per treatment). […] The treatments were applied topically on right ear and vehicle on left ear, thereafter, the edema was induced by administration topically of TPA (2.5 µg) over both ears. Six hours after administration of TPA, the animals were sacrificed by cervical dislocation. Circular sections 6 mm in diameter were taken from both the treated and non-treated ears and weighed to determine the inflammation.

[18] = system: pro-inflammatory cytokines; set-up: method as in PMID 27921103; conditions: 40 µM; via heme oxygenase-1 induction; cited from earlier work
[19] = 6 µM, mediated by caspase-3-like (CPP32-like) activation

For `CC(C)=CCC/C(C)=C/CC/C(C)=C/CC/C(C)=C/C[C@@H](O)/C=C(\C)CC/C=C(\C)CC/C=C(\C)CCC=C(C)C` [Compound 1, (6E,10E,14E,18E,22E,26E)-2,6,10,14,19,23,27,31-octamethyldotriaconta-2,6,10,14,18,22,26,30-octaen-16R-ol], the IC50 [1] was 88.8 ± 8.9 µM, the “population in sub-G1 phase” value [2] was 19.0% and the Bcl-2 transcripts [3] was “inhibition of Bcl-2”. For the same compound, the Bax transcripts [4] was “increased Bax transcripts”, the Bax/Bcl-2 ratio [4] was “increasing the Bax/Bcl-2 ratio” and the “population in sub-G1 phase” value [5] was 18.5%. The “effect on cell viability of RAW 264.7 cells” value [6] was “decreased the cell viability”, the IC50 [7] was 32 ± 4.4 µM and the IC50 [8] was 26.6 ± 3.5 µM. For the same compound, the IC50 [9] was 21.3 ± 3.5 µM, the IC50 [10] was 37.3 ± 3.5 µM and the “caspase 3/7 activation” value [11] was “statistically significant increase in caspase 3/7 activation”. For the same compound, the “morphological changes (AO/EB fluorescence microscopy)” value [12] was “apoptotic bodies formation and clear condensation of chromatin”, the inhibition at 25.6 µM ([13]; Mus musculus, RAW264.7, 14.4 µg/mL (25.6 µM)) was 28.6 ± 1.81% and the “population in sub-G1 phase” value [14] was 14.8%. For the same compound, the “percentage of early phase apoptosis cells” value [15] was 22.6%.
In the case of `CC(C)=CCC/C(C)=C/CC/C(C)=C/CC/C(C)=C/CC/C(C)=C\CC/C(C)=C\CC/C(C)=C\CC/C(C)=C\CC/C(C)=C\CC/C(C)=C\CC/C(C)=C\CC/C(C)=C\CO` [Compound 2, (Z8,E3,ω)-dodecaprenol], the IC50 [1] is reported as 76.6 ± 6 µM, the IC50 [7] is reported as 74.2 ± 5 µM and the IC50 [8] is reported as 76.6 ± 6 µM. The IC50 [9] was 50.3 ± 5.9 µM, the IC50 [10] was 95.7 ± 12 µM and the “inhibitory activity on NO production” value [13] was “negligible inhibitory activity”.
`CC(C)=CCC/C(C)=C/CC/C(C)=C/CC/C(C)=C/CC/C(C)=C\CC/C(C)=C\CC/C(C)=C\CC/C(C)=C\CC/C(C)=C\CC/C(C)=C\CC/C(C)=C\CC/C(C)=C\CC/C(C)=C\CO` [Compound 3, (Z9,E3,ω)-tridecaprenol] gave an IC50 [1] of 74.1 ± 5.5 µM, an IC50 [7] of 76.4 ± 6.6 µM and an IC50 [8] of 74.2 ± 5.5 µM. For the same compound, the IC50 [9] was 69.7 ± 5.5 µM, the IC50 [10] was 84.1 ± 8.9 µM and the “inhibitory activity on NO production” value [13] was “negligible inhibitory activity”.
`CC(=O)O[C@H]1C(=O)[C@@]2(C)[C@H]([C@H](OC(=O)c3ccccc3)[C@]3(O)C[C@H](OC(=O)[C@H](O)[C@@H](NC(=O)c4ccccc4)c4ccccc4)C(C)=C1C3(C)C)[C@]1(OC(C)=O)CO[C@@H]1C[C@@H]2O` [Paclitaxel, reference compound] gave an IC50 [1] of 0.08 ± 0.005 µM, an IC50 [7] of 0.0154 ± 0.0035 µM and an IC50 [8] of 0.0065 ± 0.0007 µM. For the same compound, the IC50 [9] was 0.008 ± 0.001 µM and the IC50 [10] was 0.01 ± 0.002 µM.
For `CC(C)=CCC/C(C)=C/CC/C(C)=C/CC/C(C)=C/CC/C(C)=C/CC/C(C)=C/CC/C(C)=C/CC/C(C)=C\CC/C(C)=C/CCC(C)CCOP(=O)(O)O` (stereo not drawn) [dihydrodecaprenyl phosphates, dihydrodecaprenyl phosphate], the “apoptosis in U937 cells” value [16, 19] is given as “induced apoptosis”.
For `COc1ccc2c(c1)c(CC(=O)O)c(C)n2C(=O)c1ccc(Cl)cc1` [indomethacin, reference compound], the edema inhibition [17] was 87.6 ± 0.4% and the inhibition at 30 µg/mL ([13]; Mus musculus, RAW264.7, 30 µg/mL) was 54.6 ± 8.9%.
In the case of `CC(C)=CCC/C(C)=C/CC/C(C)=C/CC/C(C)=C/CC/C(C)=C/CC/C(C)=C/CC/C(C)=C/CC/C(C)=C/CC/C(C)=C/CO` [solanesol], the “production of pro-inflammatory cytokines” value [18] is listed as “suppresses the production of pro-inflammatory cytokines”.
For Dihydroheptaprenyl phosphate, the “apoptosis in U937 cells” value [16, 19] is given as “induced apoptosis”.
For Dolichyl phosphate, the “apoptosis in U937 cells” value ([16]; 8 µg/mL, by the MAP kinase cascade) is listed as “induced apoptosis”.
